Entries after “also recorded” stand apart in the source; their conditions may differ.
What was measured:
[1] = test system: transgenic mice (Line 61) expressing wildtype human α-synuclein; test: α-Synuclein transgenic mice, intraventricular infusion, immunohistochemical analysis of α-synuclein accumulation and neurodegeneration; type: in vivo; details: for overall α-synuclein pathology / PD phenotype / neuronal accumulation of α-synuclein in the basal ganglia (mean α-synuclein cell pixel intensity, caudo-putamen) / dendritic complexity in the basal ganglia as detected by MAP2 (% of neuropil covered by MAP2 immunoreactive dendrites) / tyrosine hydroxylase (TH) fibers (TH corrected optical density in the caudo-putamen): infusion via osmotic minipumps six weeks; for neuronal accumulation of α-synuclein in the basal ganglia (mean α-synuclein cell pixel intensity, caudo-putamen): DENSPM 62 μM, Berenil 30 μM; for neuronal accumulation of α-synuclein in the basal ganglia (mean α-synuclein cell pixel intensity, caudo-putamen) / mean α-synuclein cell pixel intensity in the substantia nigra: compared to transgenic mice treated with PBS; for dendritic complexity in the basal ganglia as detected by MAP2 (% of neuropil covered by MAP2 immunoreactive dendrites) / tyrosine hydroxylase (TH) fibers (TH corrected optical density in the caudo-putamen): compared to syntgPBS; for mean α-synuclein cell pixel intensity in the substantia nigra: infusion via osmotic pumps six weeks
Text: α-Synuclein transgenic mice and infusion: For this study, heterozygous transgenic (tg) mice (Line 61) expressing wildtype human α-synuclein (hα-syn) under the regulatory control of the mThy1 promoter were used (Rockenstein, E. et al. 2002). These animals were selected because they display abnormal accumulation of detergent-insoluble hα-syn and develop hα-syn-immunoreactive inclusion like structures in the basal ganglia, cortex, and limbic system (Rockentein, E. et al. 2002). Furthermore, these animals also display neurodegenerative and motor deficits that mimic certain aspects of PD and Dementia with Lewy bodies (Fleming, S. et al. 2004). Infusions were performed as previously described (Veinbergs, I. et al. 2001). In order to evaluate the effects of the polyamine pathway, hα-syn tg mice (10-11 months old) received intraventricular infusions with a cannula implanted into the skull and connected to osmotic minipumps of either vehicle, Beneril, or DENSPM. A total of 15 hu-syn tg mice (n=5 per group) were used for these experiments. Mice were treated for six weeks; the compounds were dissolved in 0.9% NaCl at a concentration of 62 μM for DENSPM and 30 μM for Berenil at a pH of 7.2. Then, 200 μL of these solutions were filled into the osmotic minipump (Alzet) ensuring constant delivery ([…]). The minipump was implanted subcutaneously on the back under light anesthesia. An additional group of control non tg (n=5) mice were implanted with minipumps filled with vehicle only. All procedures were completed under the specifications set forth by the Institutional Animal Care and Use Committee.
Brains were removed and divided sagittally. One hemibrain was postfixed in phosphate-buffered 4% paraformaldehyde, pH 7.4, at 4° C. for 48 h and sectioned at 40 μm with a Vibratome 2000 (Leica) and placed in cryosolution, whereas the other hemibrain was snap frozen and stored at −70° C. for further analysis. Sections were first washed 3×5 minutes each in PBS. They were then pretreated with 1% Triton-X, 3% hydrogen peroxide in PBS for 15 minutes, washed again 3×5 min in PBS and blocked in 10% serum matching the animal the secondary antibody was raised in for 1 hour and then washed in PBS. Sections were then placed in primary antibody: mouse anti-TH, rabbit anti-(h) α-syn, mouse anti-MAP2 (Chemicon, (1:500)) overnight in 4° C. Sections were washed 3×5 min in PBS and then placed in biotynilated secondary antibody (1:100) (Vector Laboratories) for 2 hours. After washing again 3 times in PBS, sections were placed in 20% […] (DAB) (Vector Laboratories) for 20 seconds. The reaction with DAB was halted by immersing the sections in double distilled water. Sections were then mounted, dried and coverslipped with Entillin (Fisher Scientific). Sections for fluorescent immunohistochemistry were treated with mouse monoclonal anti-microtuble-associated protein 2 (MAP2, 1:50, Roche Molecular Biochemicals) primary antibody. This antibody was then detected with the fluorescein isothiocyanate (FITC)-conjugated anti-mouse secondary antibody (Vector Laboratories). Coverslips were air-dried overnight, mounted on slides with anti-fading media (Vectashield, Vector Laboratories), and imaged with the LSCM (MRC 1024, Bio-Rad). The immunolabeled blind-coded sections were imaged by LSCM (MRC1024, Bio-Rad) and analyzed with the Image 1.43 program (NIH), as previously described (Fleming, S. et al. 2004).

SAT1 = SAT1 (Homo sapiens, UniProt P21673); details: literature; cited from earlier work
[2] = test system: Murine L1210 leukemia cells; test: Polyamine determinations (HPLC) in cultured cells treated with DFMO or DFMO analogs; type: cell-based; parameters: PUT (amount): unit not given beside the values; SPD (amount) / SPM (amount) / [PUT] (concentration) / [SPD] (concentration) / [SPM] (concentration) / 48 hr avg put / 48 hr avg spd: unit not given here; details: for 24 hr avg put / 24 hr avg spd / 24 hr avg spm / 48 hr avg put / 48 hr avg spd / 48 hr avg spm: average of 10, 50, 100 uM treatments; for 24 hr avg put / 24 hr avg spd / 24 hr avg spm: 24 hour treatment
Experimental: Cell Growth. […] After 24 or 48 h, cells were removed from tubes for counting and viability determinations. Cell number was determined by electronic particle counting (Model 2F Coulter Counter; Coulter Electron-ics, Hialeah, Fla.) and confirmed periodically with hemocytometer measurements. […] The percentage of control growth was determined as follows. Cell samples were washed twice in cold PBS, and an aliquot of […] was removed for polyamine determination. The cells were pelleted, and the PBS supernatant was carefully removed with a cotton swab. […] The supernatant was frozen at -20° C. until analysis by HPLC. […] The column temperature was maintained at 65° C. with water from a circulating bath. The column was eluted at a flow rate of 16 ml/h with an initial column pressure of 500 psi which decreased with increasing ionic strength of the elution buffer. […] The column was reequilibrated for 10 min with Buffer 1 prior to loading the next sample. The column eluate was derivatized with 0.05% o-phthalaldehyde (Durrum Chemical Corp.) in 0.4M borate buffer (pH 10.4) containing […] and 0.09% Brij 35. The o-phthalaldehyde reagent flow rate was 8 ml/h. The derivatized eluate was analyzed for polyamine content by passing it through the flow cell of a […] (Fluoro-Monitor; American Instrument Co., Silver Spring, Md.) with a fixed excitation wavelength of 360 nm and emission wavelength of […]. Data were analyzed using a Hewlett Packard Model […] automation system.

α-synuclein = α-synuclein (Homo sapiens, UniProt P37840); details: in vitro system, exogenously added (Antony 2003); cited from earlier work
[3] = test system: yeast expressing α-synuclein (wildtype and A53T); details: YPGal medium, spermine 0, 0.2, 0.4 mM; Syn-WT and Syn-A53T versus empty vector strain
[4] = 10 uM treatment, 24 hr treatment
[5] = 10 uM treatment, 48 hour treatment
[6] = 50 uM treatment, 24 hr treatment
[7] = 50 uM treatment, 48 hour treatment
[8] = 100 uM treatment, 24 hr treatment
[9] = 100 uM treatment, 48 hour treatment

SAT1, sequence (P21673 whole entry): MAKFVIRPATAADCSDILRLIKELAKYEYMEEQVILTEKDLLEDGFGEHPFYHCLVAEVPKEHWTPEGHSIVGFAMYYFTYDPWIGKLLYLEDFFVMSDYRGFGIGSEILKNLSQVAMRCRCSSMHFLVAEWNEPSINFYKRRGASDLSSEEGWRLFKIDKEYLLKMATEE

CC(=O)NCC(=O)O.CC(=O)NCC(=O)O.N=C(N)c1ccc(N=NNc2ccc(C(=N)N)cc2)cc1 [Berenil, diminazene aceturate]
overall α-synuclein pathology / PD phenotype [1]: worsened
neuronal accumulation of α-synuclein in the basal ganglia (mean α-synuclein cell pixel intensity, caudo-putamen) [1]: increased
dendritic complexity in the basal ganglia as detected by MAP2 (% of neuropil covered by MAP2 immunoreactive dendrites) [1]: worsened; also recorded: decrease
tyrosine hydroxylase (TH) fibers (TH corrected optical density in the caudo-putamen) [1]: worsened; also recorded: decreased
mean α-synuclein cell pixel intensity in the substantia nigra [1]: increased
SAT1 activity (SAT1): reduces

CCNCCCNCCCNCCCNCC [DENSPM, N1, N11-diethylnorspermine]
overall α-synuclein pathology / PD phenotype [1]: partially rescued; also recorded: partially improved
neuronal accumulation of α-synuclein in the basal ganglia (mean α-synuclein cell pixel intensity, caudo-putamen) [1]: decreased
dendritic complexity in the basal ganglia as detected by MAP2 (% of neuropil covered by MAP2 immunoreactive dendrites) [1]: ameliorated; also recorded: rescued
tyrosine hydroxylase (TH) fibers (TH corrected optical density in the caudo-putamen) [1]: partially rescued; also recorded: increased
mean α-synuclein cell pixel intensity in the substantia nigra [1]: trending decrease
SAT1 activity (SAT1): increases

CCOC(=O)C(N)(CCCN)C(F)F (stereo not drawn) [DFMO Analog 1]
PUT (amount) [2, 4]: 14507
SPD (amount) [2, 4]: 1202403
SPM (amount) [2, 4]: 149654
[PUT] (concentration) [2, 4]: 0.007061
[SPD] (concentration) [2, 4]: 0.2484
[SPM] (concentration) [2, 4]: 0.4836
PUT (amount) [2, 5]: 43116
SPD (amount) [2, 5]: 1887299
SPM (amount) [2, 5]: 2659801
[PUT] (concentration) [2, 5]: 0.02099
[SPD] (concentration) [2, 5]: 2.316
[SPM] (concentration) [2, 5]: 8.595
SPD (amount) [2, 6]: 163914
SPM (amount) [2, 6]: 168544
[PUT] (concentration) [2, 6]: 0
[SPD] (concentration) [2, 6]: 0.2012
[SPM] (concentration) [2, 6]: 0.5447
PUT (amount) [2, 7]: 23355
SPD (amount) [2, 7]: 1774662
SPM (amount) [2, 7]: 4106905
[PUT] (concentration) [2, 7]: 0.01137
[SPD] (concentration) [2, 7]: 2.178
[SPM] (concentration) [2, 7]: 13.27
SPD (amount) [2, 8]: 377626
SPM (amount) [2, 8]: 500166
[SPD] (concentration) [2, 8]: 0.4635
[SPM] (concentration) [2, 8]: 1.616
SPD (amount) [2, 9]: 332304
SPM (amount) [2, 9]: 1568383
[PUT] (concentration) [2, 9]: 0
[SPD] (concentration) [2, 9]: 0.4078
[SPM] (concentration) [2, 9]: 5.068
24 hr avg put [2]: 0.002354
24 hr avg spd [2]: 0.3043
24 hr avg spm [2]: 0.8815
48 hr avg put ([2]; 48 hour treatment): 0.01078
48 hr avg spd ([2]; 48 hour treatment): 1.634
48 hr avg spm ([2]; 48 hour treatment): 8.978

CCOC(=O)C(CCCNC(=O)OC)(NC(=O)OC)C(F)F (stereo not drawn) [DFMO Analog 2]
PUT (amount) [2, 4]: 56963
SPD (amount) [2, 4]: 651020
SPM (amount) [2, 4]: 481606
[PUT] (concentration) [2, 4]: 0.02773
[SPD] (concentration) [2, 4]: 0.799
[SPM] (concentration) [2, 4]: 1.556
PUT (amount) [2, 5]: 124533
SPD (amount) [2, 5]: 3898235
SPM (amount) [2, 5]: 4032041
[PUT] (concentration) [2, 5]: 0.06062
[SPD] (concentration) [2, 5]: 4.784
[SPM] (concentration) [2, 5]: 13.03
PUT (amount) [2, 6]: 379546
SPD (amount) [2, 6]: 3615812
SPM (amount) [2, 6]: 2470785
[PUT] (concentration) [2, 6]: 0.1847
[SPD] (concentration) [2, 6]: 4.438
[SPM] (concentration) [2, 6]: 7.985
PUT (amount) [2, 7]: 34544
SPD (amount) [2, 7]: 848798
SPM (amount) [2, 7]: 693740
[PUT] (concentration) [2, 7]: 0.01681
[SPD] (concentration) [2, 7]: 1.042
[SPM] (concentration) [2, 7]: 2.242
PUT (amount) [2, 8]: 27933
SPD (amount) [2, 8]: 323941
SPM (amount) [2, 8]: 212917
[PUT] (concentration) [2, 8]: 0.0136
[SPD] (concentration) [2, 8]: 0.3976
[SPM] (concentration) [2, 8]: 0.6881
PUT (amount) [2, 9]: 7198
SPD (amount) [2, 9]: 231781
SPM (amount) [2, 9]: 236426
[PUT] (concentration) [2, 9]: 0.003504
[SPD] (concentration) [2, 9]: 0.2845
[SPM] (concentration) [2, 9]: 0.764
24 hr avg put [2]: 0.07535
24 hr avg spd [2]: 1.878
24 hr avg spm [2]: 3.41
48 hr avg put ([2]; 48 hour treatment): 0.02698
48 hr avg spd ([2]; 48 hour treatment): 2.037
48 hr avg spm ([2]; 48 hour treatment): 5.345

NCCC[C@](N)(C(=O)O)C(F)F [DFMO, α-difluoromethylornithine, reference compound]
PUT (amount) [2, 4]: 63429
SPD (amount) [2, 4]: 2369255
SPM (amount) [2, 4]: 2363841
[PUT] (concentration) [2, 4]: 0.03087
[SPD] (concentration) [2, 4]: 2.908
[SPM] (concentration) [2, 4]: 7.639
SPD (amount) [2, 5]: 254356
SPM (amount) [2, 5]: 373610
[PUT] (concentration) [2, 5]: 0
[SPD] (concentration) [2, 5]: 0.3122
[SPM] (concentration) [2, 5]: 1.207
SPD (amount) [2, 6]: 542711
SPM (amount) [2, 6]: 1315606
[PUT] (concentration) [2, 6]: 0
[SPD] (concentration) [2, 6]: 0.6661
[SPM] (concentration) [2, 6]: 4.251
SPD (amount) [2, 7]: 44007
SPM (amount) [2, 7]: 482723
[PUT] (concentration) [2, 7]: 0
[SPD] (concentration) [2, 7]: 0.05401
[SPM] (concentration) [2, 7]: 1.56
SPD (amount) [2, 8]: 42842
SPM (amount) [2, 8]: 98016
[PUT] (concentration) [2, 8]: 0
[SPD] (concentration) [2, 8]: 0.05258
[SPM] (concentration) [2, 8]: 0.3167
SPD (amount) [2, 9]: 220260
SPM (amount) [2, 9]: 7071485
[PUT] (concentration) [2, 9]: 0
[SPD] (concentration) [2, 9]: 0.2703
[SPM] (concentration) [2, 9]: 22.85
24 hr avg put [2]: 0.01029
24 hr avg spd [2]: 1.209
24 hr avg spm [2]: 4.069
48 hr avg put ([2]; 48 hour treatment): 0
48 hr avg spd ([2]; 48 hour treatment): 0.2122
48 hr avg spm ([2]; 48 hour treatment): 8.54

NCCCNCCCCNCCCN [Spermine, spermine]
aggregation of α-synuclein (α-synuclein): accelerate
toxicity of exogenous spermine (growth curves, OD600) [3]: more toxic

NCCCCNCCCN [spermidine]
aggregation of α-synuclein (α-synuclein): accelerate

— patent publication US20120129939A1, “POLYAMINE INHIBITORS FOR THE TREATMENT AND PREVENTION OF PARKINSON'S DISEASE” (priority 2009, published 2012)
